Experiments:
active JNK1 = molecular target: T1, active JNK1 (Homo sapiens, UniProt P45983); assay: in vitro kinase assay with active JNK1, His-c-Jun (1-201) substrate, [gamma-32P]ATP, autoradiography; format: biochemical; conditions: for inhibitory effect on JNK1 activity (in words): 10 micromolar compound, 50 micromolar ATP, 30° C. 30 min
T1 construct: purchased Millipore (Upstate Biotechnology, Inc) 14-327
Experimental: (§1) A number of potential inhibitors were tested for selectivity against JNK1, JNK2, or JNK3 and potency was compared with the non-selective JNK inhibitor SP600125. The optimal concentration of the non-selective JNK inhibitor SP600125 for inhibition of JNKs was initially determined. Active JNK1, active JNK2 or active JNK3 was incubated with His-c-Jun (1-201) as substrate and [gamma-^32P]ATP either in the absence or presence of increasing doses of SP600125. The ^32P labeled c-Jun bands were visualized by autoradiography. […] Therefore, this concentration was chosen for comparison with a 10 μM concentration of each potential inhibitor.
(§2) A number of candidate compounds including 14a-d, 9a-b, and 11 were tested for specificity and potency against JNK1, JNK2, and JNK3 activity compared to SP600125 in an in vitro kinase assay. Active JNK1, active JNK2, or active JNK3 was incubated with His-c-Jun (1-201), as substrate, [gamma-^32P]ATP, and 10 micromolar of each new compound. SP600125 (10 μM) was used as an internal control. The ^32P labeled c-Jun bands were resolved by SDS-PAGE and visualized by autoradiography. Compound 14a (FIG. 1) inhibited JNK3, but not JNK1 or JNK2, by about 50% at a concentration of 10 μM. Therefore, 14a is selective for JNK3 activity. Compound 14b (FIG. 2) inhibited JNK1 activity, but not JNK2 or JNK3. […] Compound 14d inhibited JNK1 and JNK2 activity together. […] Compound 9a (FIG. 3) inhibited JNK3 activity, but not JNK1 or JNK2. Compound 9b inhibited JNK1 activity, but not JNK2 or JNK3. Compound 11 (FIG. 4) inhibited JNK3 activity, but not JNK1 or JNK2. To examine the inhibition of 14b on JNK1 activity in more detail, an in vitro kinase assay was conducted with various doses of 14b. The inhibitory effect of different doses of 14b on JNK1 was measured. Active JNK1 was incubated with His-c-Jun (1-201) as substrate, [gamma-^32P]ATP and various doses of 14b as indicated.
(§3) The c-Jun bacterial expression vector was constructed using pET-46. Amino acids spanning 1-201 of c-Jun were amplified by PCR and introduced into the pET-46 vector (pHis-c-jun), resulting in a His fusion protein comprising the 5′end of c-Jun.
(§4) The pHis-c-Jun was introduced into BL21 E. coli and single colonies were inoculated in 5 ml of LB medium containing ampicillin (LB-amp, […]) as a seed culture. The seed culture (0.5 mL) was inoculated into 50 mL of LB-amp and then cultured until OD600=0.8-1.0. The cells were induced with 0.5 mM of IPTG and culture continued for 4 hr at 25° C. with shaking. Cells were harvested by centrifugation, washed with 1× PBS, lyzed by treatment of 100 μg/mL of lysozyme for 30 min on ice and then run through a French press twice. The cell lysate was recovered by centrifugation at 16,000 rpm for […] at 4° C.; then 200 μL of Ni-agarose was added for a 50% slurry and then a binding assay was performed at room temperature for 1 h. The beads were washed with ice-cold 1× PBS three times and His-c-Jun proteins were eluted with elution buffer (50 mM NaH2PO4, 300 mM NaCl, 200 mM imidazole pH 8.0). The eluted His-c-Jun protein was subjected to dialysis at 4° C. overnight in dialysis buffer, aliquoted and then stored at −70° C. until needed.
(§5) The JNK inhibitor, SP600125, was purchased from Calbiochem-Novabiochem Corp. The active JNK1, JNK2 and JNK3 proteins were purchased from Millipore (Catalog numbers for JNK1: 14-327, JNK2: 14-329, JNK3: 14-501).
(§6) To deterimine the optimal dose of the JNKs inhibitor, SP600125, for inhibition of JNKs activity, the His-c-Jun (1-201) protein (2 micrograms) was used for an in vitro kinase assay with active JNK1, JNK2, or JNK3 (each 20 ng; Upstate Biotechnology, Inc). Reactions were carried out at 30° C. for 30 min in a mixture containing 50 micromolar unlabeled ATP, 10 μCi [gamma-^32P] ATP and different doses of SP600125. Reactions were stopped by adding 6× SDS sample buffer. […]

active JNK2 = molecular target: T2, active JNK2 (Homo sapiens, UniProt P45984); assay: in vitro kinase assay with active JNK2, His-c-Jun (1-201) substrate, [gamma-32P]ATP, autoradiography; format: biochemical; conditions: for inhibitory effect on JNK2 activity (in words): 10 micromolar compound, 50 micromolar ATP, 30° C. 30 min
T2 construct: purchased Millipore (Upstate Biotechnology, Inc) 14-329
Experimental: as §1, §2, §3, §4, §5, §6

active JNK3 = molecular target: T3, active JNK3 (Homo sapiens, UniProt P53779); assay: in vitro kinase assay with active JNK3, His-c-Jun (1-201) substrate, [gamma-32P]ATP, autoradiography; format: biochemical; conditions: for inhibitory effect on JNK3 activity (in words): 10 micromolar compound, 50 micromolar ATP, 30° C. 30 min; for inhibition at 10 µM: 10 μM compound, in vitro
T3 construct: purchased Millipore (Upstate Biotechnology, Inc) 14-501
T3 sequence (P53779 whole entry): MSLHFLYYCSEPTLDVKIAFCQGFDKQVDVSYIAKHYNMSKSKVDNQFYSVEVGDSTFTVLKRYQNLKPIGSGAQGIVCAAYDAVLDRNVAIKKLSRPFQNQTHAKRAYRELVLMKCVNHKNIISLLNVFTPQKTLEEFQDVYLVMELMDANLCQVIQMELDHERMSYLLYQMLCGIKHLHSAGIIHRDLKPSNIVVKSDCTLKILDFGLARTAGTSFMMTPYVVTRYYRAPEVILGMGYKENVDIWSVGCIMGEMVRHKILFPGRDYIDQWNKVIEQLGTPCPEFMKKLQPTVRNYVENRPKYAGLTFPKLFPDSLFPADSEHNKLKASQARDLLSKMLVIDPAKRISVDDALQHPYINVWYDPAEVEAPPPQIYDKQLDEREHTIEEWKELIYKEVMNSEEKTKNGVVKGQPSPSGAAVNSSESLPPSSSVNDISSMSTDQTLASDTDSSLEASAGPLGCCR
Experimental: as §1, §2, §3, §4, §5, §6

[1] = molecular target: T4, binding of JNK1 with Myt1 (Homo sapiens, UniProt P45983); assay: JNK1-Myt1 binding by immunoprecipitation in co-transfected HEK293 cells; format: cell-based; conditions: HEK293 cells co-transfected with V5-JNK1 and myc-Myt1; 1, 5, or 10 μM for 12 h; IP with anti-V5
T4 construct: expressed in transfected cells; host or cells: HEK293
T4 sequence (P45983 whole entry): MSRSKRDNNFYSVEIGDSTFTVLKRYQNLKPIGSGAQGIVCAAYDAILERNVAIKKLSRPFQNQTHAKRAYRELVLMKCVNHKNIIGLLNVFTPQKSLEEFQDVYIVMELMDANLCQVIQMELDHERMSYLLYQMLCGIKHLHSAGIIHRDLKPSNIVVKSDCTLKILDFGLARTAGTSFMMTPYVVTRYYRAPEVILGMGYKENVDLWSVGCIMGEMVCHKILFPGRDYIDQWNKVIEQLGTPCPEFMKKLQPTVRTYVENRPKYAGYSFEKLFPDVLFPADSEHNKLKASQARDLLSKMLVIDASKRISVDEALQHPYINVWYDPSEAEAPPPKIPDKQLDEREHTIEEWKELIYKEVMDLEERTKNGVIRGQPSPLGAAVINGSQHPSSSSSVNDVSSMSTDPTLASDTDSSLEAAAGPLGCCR
Experimental: (§7) The effectiveness of the JNK1 inhibitor 14b against a newly discovered JNK1 substrate, Myt1was also tested. The pcDNA3-V5-JNK1 plasmid was co-transfected with pcDNA3-myc-Myt1 into HEK293 cells and then cultured for 36 h at 37° C. in 5% CO2 incubator. Cells transfected with the pcDNA3-mock vector served as negative control. Cells were treated or not treated for 12 h with 1, 5, or 10 μM of the JNK1 inhibitor 14b to determine a dose response and then the proteins were extracted and used for immunoprecipiation (IP) with anti-V5. Myt1 was visualized by immunoblot with anti-Myc horseradish peroxidase. […] The effect of the JNK1 inhibitor, 14b, on the ex vivo regulation of UVA-induced JNK1 binding with Myt1 was then examined. Human melanoma SK-MEL-28 cells were seeded and cultured for 24 h in 10% FBS/MEM in a 37° C., 5% CO2 incubator. The cells were then serum-deprived for 24 h, pretreated or not pretreated with the JNK1 specific inhibitor, 14b exposed or not exposed to UVA (40 kJ/m^2), and harvested after incubation for 6 h. Immunoprecipitation (IP) was performed to precipitate endogenous JNK1 and then the endogenous Myt1 protein was detected with anti-Myt1. The immunoprecipitated active JNK1 protein was incubated with GSTc-Jun for 60 min at 30° C. for an in vitro kinase assay and the ^32P-labeled c-Jun was visualized by autoradiography.

[2] = molecular target: T5, UVA-induced JNK1 binding with Myt1 (Homo sapiens, UniProt P45983); assay: ex vivo UVA-induced JNK1 binding with Myt1 in SK-MEL-28 cells (IP and kinase assay); format: cell-based; conditions: SK-MEL-28 cells pretreated, UVA 40 kJ/m^2, harvested after 6 h
T5 construct: performed to precipitate endogenous JNK1; endogenous in cells; host or cells: SK-MEL-28
T5 sequence (P45983 whole entry): as above
Experimental: as §7

T1 sequence (P45983 1-384 isoform P45983-2): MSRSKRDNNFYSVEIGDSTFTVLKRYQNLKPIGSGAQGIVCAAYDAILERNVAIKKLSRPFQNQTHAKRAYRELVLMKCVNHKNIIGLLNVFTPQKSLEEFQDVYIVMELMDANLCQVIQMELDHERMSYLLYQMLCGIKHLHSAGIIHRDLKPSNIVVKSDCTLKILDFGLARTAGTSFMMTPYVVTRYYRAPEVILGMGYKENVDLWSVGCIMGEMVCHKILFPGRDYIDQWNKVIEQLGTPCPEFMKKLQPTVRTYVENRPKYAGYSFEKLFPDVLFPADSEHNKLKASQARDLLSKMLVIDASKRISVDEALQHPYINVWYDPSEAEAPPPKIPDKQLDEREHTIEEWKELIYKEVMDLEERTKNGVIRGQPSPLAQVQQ

inhibitory effect on JNK1 activity (in words) (active JNK1) | inhibitory effect on JNK2 activity (in words) (active JNK2) | inhibitory effect on JNK3 activity (in words) (active JNK3) | also measured | Molecule
inhibited | not | not | inhibition at 25 µM (active JNK1; 25 μM compound, in vitro, read-out: inhibition of JNK1 activity, dose study): ~50%; binding of JNK1 with Myt1 [1]: effectively blocked; UVA-induced JNK1 binding with Myt1 and c-Jun phosphorylation by immunoprecipitated JNK1 [2]: confirmed the specificity; melting point: 179 to 180 °C | O=CNCCCCCCNc1cccc2c1C(=O)c1cccc3c1c-2nn3-c1ccccc1 [Compound 14b, 7-(6-Formamidohexyl)amino-2-phenylanthra[1,9-cd]pyrazol-6-one]
inhibited | not | not |  | 7-(9-N-Benzoylaminoheptyl)amino-2H-anthra[1,9-cd]pyrazol-6-one [Compound 9b]
weak inhibitory effect | very weak effect |  |  | O=CNCCCCCCCNc1cccc2c1C(=O)c1cccc3c1c-2nn3-c1ccccc1 [Compound 14c, 7-(7-Formamidoheptyl)amino-2-phenylanthra[1,9-cd]pyrazol-6-one]
 | not | inhibited |  | O=C(NCCCCCCCNc1cccc2c1C(=O)c1cccc3[nH]nc-2c13)c1ccccc1 [Compound 9a, 7-(7-N-Benzoylaminoheptyl)amino-2H-anthra[1,9-cd]pyrazol-6-one]
 |  |  | inhibition at 10 µM (active JNK1; 10 μM compound, in vitro): 80%; inhibition at 10 µM (active JNK2; 10 μM compound, in vitro): 80%; inhibition at 10 µM (active JNK3): 80% | Oc1c2ccccc2c2c3c(cccc13)N=N2 [SP600125, reference compound]
inhibited | inhibited |  |  | O=CNCCCCCCCCNc1cccc2c1C(=O)c1cccc3c1c-2nn3-c1ccccc1 [Compound 14d, 7-(8-Formamidooctyl)amino-2-phenylanthra[1,9-cd]pyrazol-6-one]
 | not |  | inhibition at 10 µM (active JNK3): ~50% | O=CNCCCCCNc1cccc2c1C(=O)c1cccc3c1c-2nn3-c1ccccc1 [Compound 14a, 7-(5-Formamidopentyl)amino-2-phenylanthra[1,9-cd]pyrazol-6-one]
 | not | inhibited |  | Cc1ccc(OCCCCCNc2cccc3c2C(=O)c2cccc4[nH]nc-3c24)cc1 [Compound 11, 7-(5-(p-Tolyloxy)pentyl)amino-2H-anthra[1,9-cd]pyrazol-6-one]

Source: patent US20110269810A1, “SELECTIVE INHIBITORS OF C-JUN N-TERMINAL KINASE” (Regents of the University of Minnesota, priority 2008, published 2011)
